pIC50: −log10 of the molar value. Read-outs that look alike come from different tables or passages of the source.
Key:
[1] = biological target: T1, SLC19A2 (Homo sapiens, UniProt O60779); test: SLC19A2 inhibitor screen: [3H]-thiamine uptake in SLC19A2-overexpressing HEK293 cells; format: cell-based; set-up: host or cells: HEK293, stably overexpressing SLC19A2 and transiently transfected with a further 500 ng wild-type plasmid; conditions: HEK293, 10 min; for remaining activity at 1000 µM: drug 1 mM, [3H]-thiamine 25 nM, 10 min, HEK293 cells expressing SLC19A2, relative to uptake without inhibitor, read-out: Average % SLC19A2 thiamine uptake; for inhibition at 1000 µM: at 1 mM, read-out: reduction in thiamine transport (designated SLC19A2 inhibitor)
T1 sequence (O60779 1-497): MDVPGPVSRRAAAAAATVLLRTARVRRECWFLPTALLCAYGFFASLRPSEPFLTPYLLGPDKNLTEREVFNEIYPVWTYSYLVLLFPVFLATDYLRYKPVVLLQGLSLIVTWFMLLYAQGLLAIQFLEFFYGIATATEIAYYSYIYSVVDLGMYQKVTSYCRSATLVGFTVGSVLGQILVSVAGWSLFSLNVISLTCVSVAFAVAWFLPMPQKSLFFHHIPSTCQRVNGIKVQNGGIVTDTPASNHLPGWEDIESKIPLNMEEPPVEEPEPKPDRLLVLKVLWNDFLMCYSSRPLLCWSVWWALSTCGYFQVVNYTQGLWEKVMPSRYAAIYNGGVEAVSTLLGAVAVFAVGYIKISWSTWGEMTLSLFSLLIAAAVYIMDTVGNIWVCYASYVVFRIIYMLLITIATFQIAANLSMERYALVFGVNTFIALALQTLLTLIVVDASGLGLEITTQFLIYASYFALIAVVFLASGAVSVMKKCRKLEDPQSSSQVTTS
Experimental: (§1) Plasmids encoding wild-type SLC19A2 and three TRMA-associated variants were generated by Genscript Inc. (Piscataway, USA). Methods for generation of stably overexpressing SLC19A2 cell lines and uptake studies have been previously described ([11], [12]). Inhibition and kinetic studies were performed in SLC19A2-overexpressing stable HEK293 cells transiently transfected with an additional 500 ng of SLC19A2 wild-type plasmid.
Prescription drugs associated with MA ([2]) in addition to others belonging to listed drug classes (e.g., proton-pump inhibitors; 63 compounds total) were screened in triplicate at 1 mM to evaluate inhibitory activity against SLC19A2. […] Each plate contained control wells exposed for 10 min (within linear range, Supplemental Figure 1) to [^3H]-thiamine (positive control), [^3H]-thiamine plus 1 mM of amprolium (negative control), and [^3H]-thiamine plus 1 mM of screened drug (3 replicates per drug). Methods have been previously described ([11]). SLC19A2 inhibitors were defined as compounds that decreased SLC19A2-mediated thiamine uptake by 50% or more at 1 mM. For compounds that met this definition, inhibition assays were conducted and IC50 values were calculated by nonlinear fitting using GraphPad Prism 7 (La Jolla, CA) ([11]).
Fig. 3 Common mechanisms of drug-induced megaloblastic anemia and SLC19A2 inhibitor drug screen workflow. A list of drugs associated with inducing megaloblastic anemia through various mechanisms was compiled (a). Each drug was dissolved to a final concentration of 1 mM in buffer containing radiolabeled [^3H] thiamine and exposed to HEK293 cells expressing SLC19A2 wild-type transporter for 10 min.

[2] = fraction unbound in plasma, human; ref Table I (PMIDs, package inserts); cited from earlier work
[3] = biological target: T1, SLC19A2; test: IC50 assays for inhibition of SLC19A2-mediated thiamine uptake; format: cell-based; set-up: host or cells: HEK293, stably overexpressing SLC19A2 and transiently transfected with a further 500 ng wild-type plasmid; conditions: inhibitor 0 to 1 mM, HEK293
Experimental: as §1
Prescription drugs associated with MA ([2]) in addition to others belonging to listed drug classes (e.g., proton-pump inhibitors; 63 compounds total) were screened in triplicate at 1 mM to evaluate inhibitory activity against SLC19A2. The screen was performed using [^3H]-thiamine (25 nM). Each plate contained control wells exposed for 10 min (within linear range, Supplemental Figure 1) to [^3H]-thiamine (positive control), [^3H]-thiamine plus 1 mM of amprolium (negative control), and [^3H]-thiamine plus 1 mM of screened drug (3 replicates per drug). Methods have been previously described ([11]). SLC19A2 inhibitors were defined as compounds that decreased SLC19A2-mediated thiamine uptake by 50% or more at 1 mM. For compounds that met this definition, inhibition assays were conducted and IC50 values were calculated by nonlinear fitting using GraphPad Prism 7 (La Jolla, CA) ([11]).
Fig. 4 Drug screen and potency studies against SLC19A2-mediated thiamine uptake. In the screen, SLC19A2 inhibitors were defined as compounds that inhibit at least 50% of thiamine uptake compared to the positive control. The positive control was thiamine uptake in the absence of inhibitor. Out of the 63 drugs screened, ten reached that threshold. Of the ten drugs, three (fedratinib, amprolium, and trimethoprim) have IC50 values published in literature (a). […] Figures representative of 3 independent experiments except for pantoprazole

[4] = set-up: method as in Reference column of Table I (PMIDs, package inserts); conditions: maximum plasma concentration, human; ref Table I (PMIDs, package inserts); cited from earlier work
[5] = biological target: T2, wild-type SLC19A2 (Homo sapiens, UniProt O60779); test: Thiamine transport by wild-type SLC19A2 in transiently transfected HEK293 cells with inhibitor; format: cell-based; conditions: 200 μM inhibitor
T2 construct: host or cells: HEK293, transiently transfected
T2 sequence (O60779 1-497): T1 sequence (O60779 1-497)
Experimental: as §1
Fig. 2 Function and expression of TRMA-associated SLC19A2 variants, and the effects of two prescription drugs on SLC19A2-mediated thiamine uptake. […] Figures representative of 3 separate experiments (a). Membrane localization of GFP-tagged SLC19A2 variants. To determine TRMA variant membrane expression, constructs encoding SLC19A2 wild-type and TRMA variants were GFP-tagged and transfected in HEK293 cells. Nuclei were stained with Hoechst 33342 dye (blue) and cells were visualized with confocal microscopy (b)

[6] = biological target: T1, SLC19A2; test: Predicted risk of SLC19A2-mediated clinical drug-drug interaction (FDA criteria); set-up: host or cells: HEK293, stably overexpressing SLC19A2 and transiently transfected with a further 500 ng wild-type plasmid; conditions: (fu*Cmax)/IC50 > 0.1
Text: Clinical pharmacokinetic data from human studies ([13]–[18]) and drug monograph databases (e.g., Micromedex, FDA) were used to obtain Cmax (maximum plasma concentration) and fu (fraction of drug unbound in the plasma).

[7] = biological target: human TPK1 (Homo sapiens, UniProt Q9H3S4); test: TPK1 enzyme assay (AMP-Glo luminescence), substrate test; format: biochemical; conditions: 1 mM compound, 15 μg human TPK, 500 μM ATP, 30 min, 37 °C
Chain of human TPK1 (Q9H3S4 whole entry): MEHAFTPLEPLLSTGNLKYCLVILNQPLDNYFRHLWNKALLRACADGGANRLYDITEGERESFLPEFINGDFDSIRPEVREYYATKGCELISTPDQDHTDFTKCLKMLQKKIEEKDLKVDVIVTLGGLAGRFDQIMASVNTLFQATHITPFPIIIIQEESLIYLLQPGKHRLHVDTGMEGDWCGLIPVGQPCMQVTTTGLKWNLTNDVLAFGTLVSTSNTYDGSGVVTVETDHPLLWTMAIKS
Experimental: Methods detailing thiamine pyrophosphokinase 1 (TPK1) enzyme assay development and execution are listed in Supplemental Figure 2 legend.
To determine if the top compounds in the SLC19A2 inhibitor screen (i.e., erythromycin, omeprazole) were substrates of human TPK1, we measured the level of adenosine monophosphate (AMP) generated in a TPK1 enzyme reaction using AMP-Glo™ Assay (Promega).
Luminescence was measured as a proxy for AMP production in human TPK1 reactions exposed to the following compounds: omeprazole 1mM (OME), erythromycin 1mM (ERY), thiamine 1mM (positive control or PC), and no substrate (negative control or NC). Reactions were comprised of 0.5 mL enzyme reaction mixture containing 100 μM MgCl2, 500 μM ATP, pH 7.4, 15 μg of human TPK and 1 mM of tested substrate incubated for 30 min at 37 °C. A negative control reaction was also prepared without added enzyme. Luminescence was measured with a GloMax luminometer (Promega). […] For omeprazole, the signal was not statistically different from the negative control (student’s t-test, p-value = 0.72). Figure representative of 3 independent experiments.

[8] = biological target: T1, SLC19A2; conditions: IC50 published in literature, ref PMID: 27803021; cited from earlier work

Row | remaining activity at 1000 µM [1] [%] | inhibition at 1000 µM [1] [%] | wild-type SLC19A2 thiamine transport activity [5] | SMILES | fu [2] | pIC50 [3] | Cmax [4] [nM] | FDA criteria for clinically relevant transporter inhibition, unbound Cmax/IC50 [6] | Luminescent signal (AMP production) in TPK1 reaction versus negative control [7] | pIC50 [8]
1 | 32.8 | ≥ 50 | – | COc1c(C)c2c(c(O)c1C/C=C(\C)CCC(=O)OCCN1CCOCC1)C(=O)OC2 [Mycophenolate mofetil] | 0.03 (label) | 3.84 | < 900 | – | – | –
2 | 46.5 | ≥ 50 | – | COc1ccnc(C[S+]([O-])c2nc3ccc(OC(F)F)cc3[nH]2)c1OC (stereo not drawn) [Pantoprazole] | 0.02 (label) | 3.37 | 6500 | – | – | –

The remaining lines, values behind:

Row | SMILES | remaining activity at 1000 µM [1] [%] | inhibition at 1000 µM [1] [%] | wild-type SLC19A2 thiamine transport activity [5] | fu [2] | pIC50 [3] | Cmax [4] [nM] | FDA criteria for clinically relevant transporter inhibition, unbound Cmax/IC50 [6] | Luminescent signal (AMP production) in TPK1 reaction versus negative control [7] | pIC50 [8]
3 | N=C(N)NC(=O)c1nc(Cl)c(N)nc1N [Amiloride] | 44.8 | ≥ 50 | – | 0.77 | 4.16 | 40 | – | – | –
4 | CCCc1ncc(C[n+]2ccccc2C)c(N)n1 [Amprolium] | 29.1 | ≥ 50 | abolished | – | – | – | – | – | –
5 | CCN(CC)CCCC(C)Nc1ccnc2cc(Cl)ccc12 (stereo not drawn) [Chloroquine] | – | – | – | 0.36-0.39 | 3.52 | 3.4 | – | – | –
6 | CC[C@H]1OC(=O)[C@H](C)[C@@H](O[C@H]2C[C@@](C)(OC)[C@@H](O)[C@H](C)O2)[C@H](C)[C@@H](O[C@@H]2O[C@H](C)C[C@H](N(C)C)[C@H]2O)[C@](C)(O)C[C@@H](C)C(=O)[C@H](C)[C@@H](O)[C@]1(C)O [Erythromycin] | 29.8 | ≥ 50 | – | 0.1-0.3 | 4.70 | 2300 to 9600 | met the FDA’s criteria for clinically relevant transporter inhibition | significantly higher than the negative control signal | –
7 | COc1ccc2[nH]c([S+]([O-])Cc3ncc(C)c(OC)c3C)nc2c1 (stereo not drawn) [Omeprazole] | 26.6 | ≥ 50 | – | 0.05 (label) | 3.68 | 1000 to 10000 | – | statistically similar to the negative control | –
8 | COc1cc(Cc2cnc(N)nc2N)cc(OC)c1OC [Trimethoprim] | 31.7 | ≥ 50 | abolished | – | – | 3440 | – | – | 5.16
